Measurements published in patent US20210293788A1, “METHOD FOR IDENTIFYING A CHEMICAL COMPOUND OR AGENT INDUCING UBIQUITINATION OF A PROTEIN OF INTEREST” (CeMM - Forschungszentrum fur Molekulare Medizin GmbH, priority 2018, published 2021).
Entries after “also recorded” stand apart in the source; their conditions may differ.

Legend:
DCAF15 [1] = target: T1, DCAF15 (Homo sapiens, UniProt Q66K64); test: DCAF15 HiBit/LgBit luciferase assay (knock-in or ectopic, live-cell or lytic detection); assay type: cell-based
T1 construct: expressed in transfected cells
Experimental: Generation of HiBit DCAF15 knock-in cells: HEK293t WT cells at 70-80% confluency were transiently transfected in a 6 well plate with a mix of 3 ug Cas9-sgRNA vector (PX458, addgene #48138, containing sgRNA [NT]), 6 ug of single stranded oligonucleotide donor (ssOND, 20 bp homology flanking the cut site) and 3.6 ug polyethylenimine (FIGS. 10 and 12). 72 hrs post-transfection cells were sorted (SH800 Cell sorter, SONY) for GFP positive cells and recovered for 24 hrs in media. Cells were subsequently seeded at a limiting dilution to generate single clones. Clones were tested after outgrowth for HiBit expression by seeding clonal cells in a black clear bottom 384 well plate and adding Nano-Glo HiBit Lytic buffer (Promega, N3030) reconstituted with recombinant LgBit and Nano-Glo HiBit Lytic Substrate in a 1:1 ratio. HiBit-expressing clones were validated by western blotting and detection of luciferase signal (Promega, N2410) at the correct size. For live cell luciferase detection (FIGS. 11 and 13) 7000 HEK293t cells with a HiBit knock-in at the N-terminus of DCAF15 and stable ectopic expression of LgBit were seeded in 10 uL per well into a black, clear-bottom 384 well plate (Corning, #3764) and incubated over night. 20 uL of media containing 1× Endurazine (Promega, N2570) was added to each well and incubated for 1 hour followed by a baseline luciferase measurement using an EnVision plate reader (Perkin Elmer). Subsequently CSN5i-3 or an equal volume of DMSO was added in 10 uL of media to a final concentration of 500 nM in the assay volume of 40 uL. Luciferase signal was measured hourly for 24 hours. For lytic HiBit detection (FIGS. 11 and 14) 10000 cells were seeded in 10 uL per well into a black clear bottom 384 well plate. After recovery cells were treated by addition of iCSN5-3 or an equal volume of DMSO in 10 uL of media to the cells. After the indicated treatment time cells were lysed by adding 20 uL Nano-Glo HiBit Lytic buffer (Promega, N3030) reconstituted with recombinant LgBit and Nano-Glo HiBit Lytic Substrate. Luciferase signal of each well was normalized to the mean DMSO luciferase signal yielding fold-change over DMSO. Luciferase signal was detected essentially as stated for FIG. 13 with the exception that indisulam (Sigma-Aldrich, SML1225) was added together with CSN5i-3 to cells in 10 uL of media to reach the indicated final concentration (FIG. 15). Luciferase signal of each well and timepoint was normalized to the mean DMSO luciferase signal yielding fold-change over DMSO. […] Luciferase signal was detected essentially as stated for FIG. 15 with the exception that indisulam and dCEMM.1 were added together with iCSN5-3 to cells in the 10 uL treatment to a final concertation of 10 uM (FIG. 17). Luciferase signal of each well and timepoint was normalized to the mean DMSO luciferase signal yielding fold-change over DMSO.

KBM7 cells = test: Dose-ranging cellular viability assays in neddylation-impaired isogenic KBM7 cells; assay type: cell-based, human
Experimental: KBM7 cells mutated for five core genes were isolated and the underlying CRISPR-induced mutations were truncations leading to full knockouts (CAND1) or hypomorphic alleles (UBE2M, COPS8, COPS7B, GPS1). […] The observable shift in efficacy was at least 10-fold and up to 1000-fold, thus providing excellent signal to noise ratios. In sum, neddylation-impaired (NEDD^mut) cell line can be applied to find novel, yet uncharacterized MGs.
This is further exemplified when said cells are treated with the compound CC-885 (a molecular glue that reprograms the substrate receptor cereblon/CRBN to degrade GSPT1), or the PROTAC® compound THAL-SNS-032 (known to reprogram the substrate receptor cereblon/CRBN to degrade the cyclin dependent kinase 9, CDK9) (both see appended FIG. 22).
However, not for every cullin RING ligase (CRL), modifications of the COP9 signalosome subunit 8 (COPS8) or CAND1 (Cullin-associated NEDD8-dissociated protein 1; a substrate receptor exchange factor) lead to an ensuing destabilization via auto-degradation. An example for this is the substrate receptor VHL(von-Hippel-Lindau), which is part of the CRL2^VHL ligase complex. […] Therefore, measuring differential sensitivity of cells manipulated to contain altered neddylation states to a molecular glue/PROTAC® compound is a feasible surrogate to measure whether the substrate receptor that is reprogrammed by said molecular glue/PROTAC® undergoes destabilization/auto-degradation upon altering the neddylation states.

DCAF15 [2] = target: T1, DCAF15; test: High-throughput screen for DCAF15 stabilization in 293T cells expressing DCAF15 HiBit fusion; assay type: cell-based; conditions: 10 uM, 384 well, measurements every 120 minutes
Description: Subsequently, in this context, the E3 ligase substrate receptor (SR) stabilization approach was employed in order to identify novel chemical matter that can bind and chemically re-program the substrate receptor DCAF15. To be able to screen a collection of around 8000 small-molecules, a cellular system was developed that enabled monitoring of DCAF15 levels in live cells in multi-well format. To that end, DCAF15 was first knocked out in 293T cells via CRISPR/Cas9 technology. Then, DCAF15 was stably expressed as a HiBit® fusion protein in these cells. After further transducing these cells with LgBit, this allowed live-cell tracing of DCAF15 levels in 384 well format by measuring bioluminescence (FIG. 18). In brief, cells were seeded at a concentration of 250′000 cells/ml in DMEM+10% FCS+25 mM Hepes. The luciferase substrate Endurazine was added at concentrations recommended by the manufacturer. Small-molecules were added at a concentration of 10 uM, and their effect on DCAF15 levels was assayed by continuous bioluminescent imaging (measurements were taken every 120 minutes). […] The known DCAF15 molecular glue indisulam (see FIG. 7) was used as a positive control. In brief, indisulam is known to act as a DCAF15-dependent molecular glue that binds DCAF15 and induced proximity between DCAF15 and RBM39, leading to the degradation of the latter.

RBM39 [3] = target: T2, RBM39 (Homo sapiens, UniProt Q14498+Q66K64); test: Western blot of RBM39 levels in KBM7 WT versus DCAF15-deficient cells; assay type: cell-based; parameters: endogenous in cells; conditions: 12 or 16 h treatment
Experimental: (§1) Given the structural similarity to indisulam, it was assayed if the two new test compounds would similarly lead to the degradation of RBM39 in a DCAF15-dependent manner. Towards that end, their effect on RBM39 levels in wildype cells as well as cells deficient for DCAF15 levels was tested. KBM7 (WT or knockout, FIG. 20) as well as 293T cells (DCAF15-HiBit overexpression vs knockout, see FIG. 21) were tested in various conditions of dCEMM.1 and/or dCEMM.2, comparing their effect to indisulam.

RBM39 [4] = target: T2, RBM39; test: Western blot of RBM39 levels in 293T DCAF15 KO versus DCAF15-reconstituted cells; assay type: cell-based; parameters: endogenous in cells; host or cells: 293T DCAF15 KO and 293T reconstituted with tagged DCAF15; conditions: 293T cells reconstituted with tagged DCAF15, 10 h treatment
Experimental: as §1

T1 sequence (Q66K64 whole entry): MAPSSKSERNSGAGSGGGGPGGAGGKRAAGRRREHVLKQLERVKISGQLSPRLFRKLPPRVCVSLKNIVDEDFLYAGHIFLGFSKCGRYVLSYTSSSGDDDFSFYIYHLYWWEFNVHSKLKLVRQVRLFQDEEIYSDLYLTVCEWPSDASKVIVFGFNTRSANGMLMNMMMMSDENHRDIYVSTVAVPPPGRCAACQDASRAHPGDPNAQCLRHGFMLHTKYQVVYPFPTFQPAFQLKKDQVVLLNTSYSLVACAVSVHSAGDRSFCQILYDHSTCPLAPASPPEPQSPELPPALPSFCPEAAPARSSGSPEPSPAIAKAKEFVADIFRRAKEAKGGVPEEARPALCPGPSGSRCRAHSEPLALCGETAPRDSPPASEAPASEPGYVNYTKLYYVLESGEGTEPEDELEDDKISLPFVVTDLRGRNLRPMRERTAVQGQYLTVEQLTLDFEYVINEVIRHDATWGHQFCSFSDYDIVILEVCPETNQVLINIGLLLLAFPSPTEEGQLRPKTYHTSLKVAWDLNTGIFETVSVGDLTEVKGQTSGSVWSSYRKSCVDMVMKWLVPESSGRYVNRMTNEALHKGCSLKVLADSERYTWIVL

Question: Which “DCAF15 re-stabilization (luciferase, fold-change over DMSO)” value (DCAF15 [1]; HiBit knock-in live cells, added together with CSN5i-3 (FIG. 15)) does the source give for `NS(=O)(=O)c1ccc(S(=O)(=O)Nc2cccc3c(Cl)c[nH]c23)cc1` [indisulam] here?
Answer: rescues DCAF15 from auto-degradation; also recorded: DCAF15 re-stabilization

Question: What about the “DCAF15 re-stabilization (luciferase, fold-change over DMSO)” value (DCAF15 [1]; live cells, 10 uM, added together with CSN5i-3 (FIG. 17)) of the same compound?
Answer: rescues DCAF15 from auto-degradation; also recorded: DCAF15 re-stabilization

Question: What about the “Cytotoxic activity / sensitivity in COPS8- or CAND1-modified cells” value (KBM7 cells; KBM7 cells modified in COPS8 or CAND1 versus non-modified control) of the same compound?
Answer: resistance to indisulam in both genetic backgrounds; also recorded: reduced activity

Question: And the “Resistance of mutant cells in cellular viability assay” value (KBM7 cells; KBM7 cells mutated in CAND1, UBE2M, COPS8, COPS7B or GPS1 versus wild type)?
Answer: caused resistance

Question: And the “DCAF15 stabilization (relative luciferase signal over time)” value (DCAF15 [2])?
Answer: pronounced stabilization of DCAF15 over time; also recorded: identified as positive hits; also recorded: significant stabilization of DCAF15 over time

Question: And the “RBM39 levels (western blot)” value (RBM39 [3])?
Answer: destabilization

Question: And the “RBM39 levels (western blot)” value (RBM39 [4])?
Answer: destabilization
